Experimental data: PubChem BioAssay (NCI)
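Method: 48-hour compound exposure of cells in 96-well plates, five concentrations, linear interpolation of endpoints. Abbreviation: GI50, concentration required for 50% inhibition of growth. At the TGI there is no net growth.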

Tests used:
Assay in all cases: NCI-60 cell line screen, 48 h
A549 NSCLC = test system: A549 NSCLC
ACHN renal = test system: ACHN renal
EKVX NSCLC = test system: EKVX NSCLC
MCF7 breast = test system: MCF7 breast
MDA-MB-435 = test system: MDA-MB-435
NCI-H226 lung = test system: NCI-H226 lung
NCI-H23 lung = test system: NCI-H23 lung
NCI-H460 lung = test system: NCI-H460 lung
SW-620 colon = test system: SW-620 colon
TK-10 renal = test system: TK-10 renal

Row | Structure (SMILES) | GI50 (A549 NSCLC) [µM] | TGI (A549 NSCLC) [µM] | GI50 (ACHN renal) [µM] | TGI (ACHN renal) [µM] | GI50 (EKVX NSCLC) [µM] | TGI (EKVX NSCLC) [µM] | GI50 (MCF7 breast) [µM] | TGI (MCF7 breast) [µM] | GI50 (MDA-MB-435) [µM] | GI50 (NCI-H226 lung) [µM] | TGI (NCI-H226 lung) [µM] | GI50 (NCI-H23 lung) [µM] | TGI (NCI-H23 lung) [µM] | GI50 (NCI-H460 lung) [µM] | TGI (NCI-H460 lung) [µM] | GI50 (SW-620 colon) [µM] | TGI (SW-620 colon) [µM] | GI50 (TK-10 renal) [µM] | TGI (TK-10 renal) [µM] | TGI (MDA-MB-435) [µM]
1 | COc1cc2c(/C=C3/C(=O)Nc4ccc(O)cc43)c(Cl)n(Cc3cc(OC)c(OC)c(OC)c3)c2cc1C | 3.45 | > 100 | 3.43 | > 100 | 2.69 | > 38.5 | 0.776 | 19.7 | 0.328 | 2.88 | > 27 | 3.54 | > 100 | 1.86 | > 32.7 | 3.28 | > 100 | 3.25 | > 24.6 | 
2 | O=c1oc2ccc(Cl)cc2c(=O)n1-c1ccc(F)cc1F | 2.08 | > 100 | 2.14 | 6.08 | 1.98 | 8.04 | 2.42 | > 100 | 1.64 | 1.41 | 5.87 | 1.87 | 7.24 | 2.2 | 11.5 | 3.12 | 16.9 | 5.55 | 68.2 | 7.73
3 | O=[N+]([O-])c1ccc(N=Nc2c(Cl)cc(O)cc2Cl)cc1 | 2.88 | 11.8 | 1.01 | 11.6 | 1.94 | 5.57 | 1.17 | 6.43 | 0.943 | 2.83 | 11.3 | 1.72 | 6.71 | 1.41 | 4.77 | 1.6 | 10.3 | 4.34 | 25.8 | 3.16
4 | CCOC(=O)c1c2c(n3ccc(NC(=O)CCN4CCCCC4)cc13)C(=O)c1ncccc1C2=O | 0.0547 | 2.81 | < 0.01 | 1.51 | 3.03 | 8.47 | < 0.01 | 1.95 | 1.16 | 4.32 | 11.3 | 0.0369 | 2.03 | < 0.01 | 0.443 | 0.0269 | 2.38 | 0.171 | 2.25 | 2.47
5 | O=C(CCCC(=O)N/N=C/c1cc(Cl)ccc1O)N/N=C\c1cc(Cl)ccc1O | 3.69 | > 100 | 1.58 | > 100 |  |  | 2.54 | > 100 | 6.87 | 6.64 | 65.7 | 11.9 | > 100 | 2.94 | > 100 | 3.69 | > 100 |  |  | > 100
6 | O=C1c2ccccc2C(=O)c2c1oc1c2c(=O)[nH]c2ccc(Cl)cc21 | 1.03 | 2.92 | 0.203 | 0.577 | 0.249 | 2.44 | 0.23 | 1.05 | 0.297 | 0.143 | 0.355 | 0.355 | 1.83 | 0.22 | 0.489 | 0.332 | 1.01 | 0.379 | 1.1 | 1.19
